Data on 1 compound can be found in patent US7375124B2, “Use of α-phenylthiocarboxylic and α-phenyloxycarboxylic acids with serum-glucose-lowering and serum-lipid-lowering activity” (Sigma-Tau Industrie Farmaceutiche Riunite S.p.A., priority 2002, dated 2008).

The subject of one data set is C57BL/KsJ db/db mouse. In words: Antidiabetic and serum-lipid-lowering activity in the db/db mouse (Experiments I and II). Particulars: Experiment II; for Glucose: blood.
Another data set has as its target T1, PPARγ (Mus musculus, UniProt P37238).
T1 construct: expressed in transfected cells; host or cells: NIH-3T3 (mouse embryonal fibroblasts)
T1 sequence (P37238 1-475 isoform P37238-2): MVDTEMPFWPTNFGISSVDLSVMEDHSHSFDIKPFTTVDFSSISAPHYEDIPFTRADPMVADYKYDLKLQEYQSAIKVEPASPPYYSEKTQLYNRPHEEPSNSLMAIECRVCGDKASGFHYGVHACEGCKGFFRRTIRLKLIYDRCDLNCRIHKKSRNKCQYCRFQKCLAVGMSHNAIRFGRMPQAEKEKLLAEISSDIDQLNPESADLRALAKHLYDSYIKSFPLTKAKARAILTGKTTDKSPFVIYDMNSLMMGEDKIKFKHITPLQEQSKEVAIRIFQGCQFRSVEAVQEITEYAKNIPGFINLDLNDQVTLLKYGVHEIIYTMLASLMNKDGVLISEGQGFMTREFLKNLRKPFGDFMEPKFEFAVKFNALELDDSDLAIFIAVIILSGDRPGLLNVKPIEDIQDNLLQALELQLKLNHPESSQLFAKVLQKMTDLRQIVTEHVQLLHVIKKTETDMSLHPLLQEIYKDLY
Nature of the data set: Transactivation assay mediated by PPARγ in NIH-3T3 cells (CAT reporter). The format is cell-based. From the text: A transactivation assay specific for PPARγ thus requires the simultaneous presence of the following in the preselected cell line: • a) a sufficient amount of PPARγ; • b) a sufficient amount of the 9 cis-retinoic acid receptor (RXR); • c) a chimeric plasmid containing the reporter gene controlled by a PPRE, located upstream of a viral heterologous promoter. In our case the reporter gene is chloramphenicol-acetyl transferase (CAT).
In the transactivation assay used, the preselected cells are transfected with the expression vector pSG5 Stop-mPPARg1 which allows the synthesis of the PPARγ receptor by the transfected cell. Simultaneously, a plasmid reporter (pBLCAT2-PPRE) is transfected which contains a peroxisome proliferator response element (PPRE) isolated by the gene promoter for acyl-CoA oxidase, upstream of the heterologous promoter of viral thymidine kinase (TK) fused with the reporter gene CAT. Since the endogenous cell levels of the RXR receptor are sufficiently high, it is not necessary to transfect an expression vector specific for RXR as well. […] Therefore, any increase in CAT levels will be the result of increased gene transcription dependent upon the dimerisation of PPARγ with RXR and upon the heterodimer bond formed with the peroxisome proliferator response element. Together with the expression vector and the reporter vector the cells are also transfected with the plasmid pCH110 which provides the internal control for the efficiency of transfection and the normalisation of the results
A cell line of mouse embryonal fibroblasts (NIH-3T3) was used [Hogan J. C. et al., Biochem Biophys Res Commun. 287 (2), 484-92 (2001)]. The cells were transfected with the reporter plasmid, the expression plasmid coding for the PPARγ receptor and the control vector pCH110. The cells were exposed to increasing concentrations of the study compounds and CAT activity was evaluated. Untreated cells were used as controls.
Mouse embryonal fibroblasts (NIH-3T3) were cultured according to the usual cell culture techniques, at 37° C. in a 5% v/v carbon dioxide atmosphere using as the growth medium DMEM (Dulbecco's modified Eagle's medium) modified with 3.7 g/l of sodium bicarbonate, 4 mM L-glutamine, 4.5 g/l of glucose, 1 mM sodium pyruvate and 10% v/v of calf serum, in the presence of streptomycin 100 μg/ml and penicillin 100 U/ml final.
The cells were co-transfected using the transfection reagent FuGENE6 (Roche), already described in the previous example. Twenty-four hours prior to transfection the cells were plated at a density of 8.0×10^4 cells/well in 12-well plates and maintained at 37° C. in a 5% v/v CO2 atmosphere. The culture medium, devoid of serum, was replaced 2 hours before transfection, and then the cells were treated with the transfection reagent FuGENE6, as described in the previous example. After 5 hours, the transfection medium was replaced by 1 ml of culture medium complete with serum and antibiotics in the presence or absence of the molecules to be tested at 3 different concentrations (2, 20 and 100 μM). Rosiglitazone, a known ligand of PPARγ, was used as the positive reference compound.
The cell protein extracts were prepared and the CAT activity assay was conducted exactly as described in the previous example.
As an internal control for the normalisation of the CAT activity in relation to the transfection efficiency, β-galactosidase activity coded for by the corresponding gene in the co-transfected plasmid pCH110 was used.
β-galatosidase activity was measured exactly as described in the previous example.
For the normalisation of the CAT assay results in relation to […] activity the formula described in the previous example was used.

Setting [1] is: after 12 days' treatment, postabsorption, 7.5 hours after last treatment, mean ± S.E.

Text for C57BL/KsJ db/db mouse: Plasma levels of glucose, insulin, triglycerides, cholesterol, free fatty acids and urea were checked for a well-matched distribution of mice in the treatment groups.
At the start of treatment the body weights of the mice were checked and arrangements were made for monitoring water and feed consumption.
In the course of the experiment, serum glucose levels, oral glucose tolerance test (OGTT) findings, a number of lipid status parameters and weight gain were monitored.

`CC(C)(Sc1cccc(OCCc2ccc(Cl)cc2)c1)C(=O)O` [Example 2, 2-[3-[2-(4-chlorophenyl)ethoxy]phenylthio]-2-methylpropanoic acid] yielded a melting point of 105 to 106 °C. Also, the “Variation % (glucose) vs control” value in the data set with C57BL/KsJ db/db mouse (after 9 days' treatment, postabsorption, 8 hours after last treatment) is on record as −66%. For the same compound, the “Variation % (AUC glucose at OGTT) vs control” value in the data set on C57BL/KsJ db/db mouse (after 11 days' treatment, OGTT glucose 3 g/kg) is −43%. Also, the “AUC glucose at OGTT” value in the data set on C57BL/KsJ db/db mouse (after 11 days' treatment, OGTT glucose 3 g/kg, fasting 18 hours, 5 hours after last treatment, mean ± S.E.) came out at 24517 ± 2261 a.u. Besides, in the data set on C57BL/KsJ db/db mouse (after 11 days' treatment, fasting 18 hours, 5 hours after last treatment), the “Variation % (glucose) vs control” value is reported as −48%. For the same compound, in the data set with C57BL/KsJ db/db mouse (after 12 days' treatment), the “Variation % (HDL-cholesterol) vs control” value is on record as “+19%”, the “Variation % (final b.w.) vs control” value is on record as “+5%” and the “Variation % (triglycerides) vs control” value is recorded as −44%. For the same compound, the “Glucose (plasma)” value with C57BL/KsJ db/db mouse (after 12 days' treatment, postabsorption (fasting 9 a.m. to 4.30 p.m.), 7.5 hours after last treatment, mean ± S.E.) turned out to be 263 ± 30 mg/dL. In addition, the “Variation % (plasma glucose) vs control” value in the data set on C57BL/KsJ db/db mouse (after 12 days' treatment, postabsorption, 7.5 hours after last treatment) is −54%. Also, in the data set on C57BL/KsJ db/db mouse (setting [1]), the “HDL-choles. (plasma)” value is recorded as 102.5 ± 4.7Δ mg/dl and the “Triglycerides (plasma)” value came to 48.6 ± 2.5 mg/dL. This compound gave a Glucose in the data set on C57BL/KsJ db/db mouse (after 9 days' treatment, postabsorption (fasting 9 a.m. to 5 p.m.), 8 hours after last treatment, mean ± S.E.) of 155 ± 21 mg/dL. In the data set with C57BL/KsJ db/db mouse (after 11 days' treatment, fasting 18 hours, 5 hours after last treatment, mean ± S.E.), this compound yielded a Glucose of 128 ± 8 mg/dL. Moreover, in the data set with C57BL/KsJ db/db mouse (final body weight after 12 days' treatment, postabsorption condition, mean ± S.E.), the Final b.w. was 39.4 ± 0.9 g. Also, the “Variation % (initial b.w.) vs control” value with C57BL/KsJ db/db mouse (initial body weight) is on record as −3%. For the same compound, the Initial b.w. in the data set with C57BL/KsJ db/db mouse (initial body weight, postabsorption condition, mean ± S.E.) is 37.8 ± 0.5 g. The “Activation of the gene-reporter CAT as a percentage of the reference compound (rosiglitazone 2 μM = 100%)” value at PPARγ (2 μM) is given as 28.6%. On PPARγ (20 μM), the “Activation of the gene-reporter CAT as a percentage of the reference compound (rosiglitazone 2 μM = 100%)” value stood at 61.2%. In addition, at PPARγ (100 μM), the “Activation of the gene-reporter CAT as a percentage of the reference compound (rosiglitazone 2 μM = 100%)” value amounted to 114.3%.
